Results reported in patent US8354398B2, “Substituted isoxazole compounds” (Bristol-Myers Squibb Company, priority 2009, dated 2013).
Structures can show the parent of a compound that is named as a salt.

Legend:
[1] = molecular target: T1, S1P1 (Homo sapiens, UniProt P21453); test: S1P1 Binding Assay (33P-S1P ligand competition, membranes from CHO cells); set-up: expressed in transfected cells; host or cells: CHO cells; details: membranes of CHO cells expressing human S1P1; 0.03 nM 33P-S1P; 60 min room temperature
Procedure: Membranes were prepared from CHO cells expressing human S1P1. Cells were dissociated in buffer containing 20 mM HEPES, pH 7.5, 50 mM NaCl, 2 mM EDTA and Protease Inhibitor cocktail (Roche), and disrupted on ice using the Polytron homogenizer. The homogenate was centrifuged at 20,000 rpm (48,000 g) and the supernatant was discarded. The membrane pellets were resuspended in buffer containing 50 mM HEPES, pH 7.5, 100 mM NaCl, 1 mM MgCl2, 2 mM EDTA and stored in aliquots at −80° C. after protein concentration determination.
Membranes (2 μg/well) and 0.03 nM final concentration of ^33P-S1P ligand (1 mCi/ml, American Radiolabeled Chemicals) were added to the compound plates. Binding was performed for 60 min at room temperature, terminated by collecting the membranes onto GF/B filter plates, and radioactivity was measured by TOPCOUNT®. The competition data of the test compounds over a range of concentrations was plotted as percentage inhibition of radioligand specific binding. The IC50 is defined as the concentration of competing ligand needed to reduce specific binding by 50%.
Compounds of the present invention and Comparative Compound A were tested in the S1P1 binding assay described hereinabove and the results rounded to two digits, shown in Table A were obtained. In some instances, the value is an average of multiple experiments where N is the number of experiments conducted that provided satisfactory dose response curves. When more than one batch of an example was tested, the value presented is from the batch which allowed a comparison of GTPγS S1P1 and GTPγS S1P3 in Method A (Data shown in Table B). Data was not averaged across different batches of an example compound.

[2] = molecular target: T1, S1P1; test: Method A: Receptor [35S] GTPγS Binding Assay, membranes from S1P1/CHO cells; type: biochemical; set-up: expressed in transfected cells; host or cells: S1P1/CHO cells; details: for EC50: Method A, S1P1/CHO cell membranes; for GTPγS S1P3/S1P1 (Method A): ratio of GTPγS S1P3 EC50 to GTPγS S1P1 EC50, Method A
Procedure: (§1) Compounds were loaded in a 384 Falcon v-bottom plate (0.5 μl/well in a 3-fold dilution). Membranes prepared from S1P1/CHO cells or EDG3-Ga15-bla HEK293T cells were added to the compound plate (40 μl/well, final protein […]) with MULTIDROP®. [^35S]GTP (1250 Ci/mmol, Perkin Elmer) was diluted in assay buffer: 20 mM HEPES, pH7.5, 10 mM MgCl2, 150 mM NaCl, 1 mM EGTA, 1 mM DTT, 10 μM GDP, 0.1% fatty acid free BSA, and 10 mg/ml Saponin to 0.4 nM. 40 μl of the [^35S] GTP solution was added to the compound plate with a final concentration of 0.2 nM. The reaction was kept at room temperature for 45 min. At the end of incubation, all the mixtures in the compound plate were transferred to a 384 well FB filter plates via GPCR robot system. The filter plate was washed with water 4 times by using the modified manifold Embla plate washer and dried at 60° C. for 45 min. 30 μl of MicroScint 20 scintillation fluid was added to each well for counting at Packard TOPCOUNT®. EC50 is defined as the agonist concentration that corresponds to 50% of the Ymax (maximal response) obtained for each individual compound tested.
(§2) Compounds of the present invention and Comparative Compound A were tested in the Receptor [^35S] GTPγS Binding Assays (Method A) and Receptor [35S] In some instances, the value is an average of multiple experiments where N is the number of experiments conducted that provided satisfactory dose response curves. When more than one batch of an example was tested, the value presented is from a batch which allowed a comparison of GTPγS S1P1 and GTPγS S1P3 in which the most number of experiments were performed. Preferably, the same batch was examined in Method A and Method B. Data was not averaged across different batches of an example compound.

[3] = molecular target: S1P3 (Homo sapiens, UniProt Q99500); test: Method A: Receptor [35S] GTPγS Binding Assay, membranes from EDG3-Ga15-bla HEK293T cells; type: biochemical; set-up: expressed in transfected cells; host or cells: EDG3-Ga15-bla HEK293T cells; details: EDG3-Ga15-bla HEK293T cell membranes
Procedure: as §1, §2

Sequence of S1P3 (Q99500 whole entry): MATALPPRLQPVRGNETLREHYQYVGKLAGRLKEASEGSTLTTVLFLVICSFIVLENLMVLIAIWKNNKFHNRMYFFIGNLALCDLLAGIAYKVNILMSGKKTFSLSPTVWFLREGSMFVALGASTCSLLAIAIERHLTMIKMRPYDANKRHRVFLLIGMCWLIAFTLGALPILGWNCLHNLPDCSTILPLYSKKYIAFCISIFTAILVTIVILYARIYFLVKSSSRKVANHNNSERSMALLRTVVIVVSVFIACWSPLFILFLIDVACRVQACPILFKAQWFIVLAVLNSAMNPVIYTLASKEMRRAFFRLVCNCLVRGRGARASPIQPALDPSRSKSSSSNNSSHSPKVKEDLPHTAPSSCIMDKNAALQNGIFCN
T1 sequence (P21453 whole entry): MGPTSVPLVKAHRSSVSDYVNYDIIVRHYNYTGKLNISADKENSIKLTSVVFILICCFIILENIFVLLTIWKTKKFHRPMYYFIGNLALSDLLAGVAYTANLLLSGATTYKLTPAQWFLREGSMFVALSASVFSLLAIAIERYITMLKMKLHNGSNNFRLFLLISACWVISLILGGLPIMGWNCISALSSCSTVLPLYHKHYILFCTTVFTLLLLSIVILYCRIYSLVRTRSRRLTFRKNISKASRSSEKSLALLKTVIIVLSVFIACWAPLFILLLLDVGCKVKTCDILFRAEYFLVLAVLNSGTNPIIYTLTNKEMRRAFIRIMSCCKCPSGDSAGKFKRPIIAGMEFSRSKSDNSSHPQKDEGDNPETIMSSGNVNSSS

SMILES | IC50 [1] | EC50 [2] | GTPγS S1P3/S1P1 (Method A) [2] | EC50 [3]
CCc1c(-c2nc(-c3ccc(CN4CC(C(=O)O)C4)c(Br)c3)no2)noc1-c1ccccc1 [Example 5, 1-(2-Bromo-4-(5-(4-ethyl-5-phenylisoxazol-3-yl)-1,2,4-oxadiazol-3-yl)benzyl)azetidine-3-carboxylic acid] | 0.14 nM | 5.3 nM | 320 | 1700 nM
CC(C)Cc1onc(-c2nc(-c3ccc(CN4CC(C(=O)O)C4)cc3)no2)c1C(F)(F)F [Example 20, 1-(4-(5-(5-Isobutyl-4-(trifluoromethyl)isoxazol-3-yl)-1,2,4-oxadiazol-3-yl)benzyl)-azetidine-3-carboxylic acid] | 0.15 nM | 0.56 nM | 3,900 | 2200 nM
O=C(O)C1CN(Cc2ccc(-c3noc(-c4onc(-c5ccccc5)c4C(F)(F)F)n3)cc2F)C1 [Example 21, 1-(2-Fluoro-4-(5-(3-phenyl-4-(trifluoromethyl)isoxazol-5-yl)-1,2,4-oxadiazol-3-yl)benzyl)azetidine-3-carboxylic acid] | 0.32 nM | 0.32 nM | 3,500 | 1100 nM
Cc1cc(-c2noc(-c3onc(-c4ccccc4)c3C(F)(F)F)n2)ccc1CN1CC(C(=O)O)C1 [Example 22, 1-(2-methyl-4-(5-(3-phenyl-4-(trifluoromethyl)isoxazol-5-yl)-1,2,4-oxadiazol-3-yl)benzyl)azetidine-3-carboxylic acid] | 0.55 nM | 0.52 nM | 3,000 | 1600 nM
O=C(O)C1CN(Cc2ccc(-c3noc(-c4onc(-c5ccccc5)c4C(F)(F)F)n3)c(Cl)c2)C1 [Example 23, 1-(3-chloro-4-(5-(3-phenyl-4-(trifluoromethyl)isoxazol-5-yl)-1,2,4-oxadiazol-3-yl)benzyl)azetidine-3-carboxylic acid] | 0.26 nM | 1.9 nM | 4,400 | 8300 nM

Results, then the molecule that gave them:

IC50 [1] | EC50 [2] | GTPγS S1P3/S1P1 (Method A) [2] | EC50 [3] | SMILES
0.09 nM | 3.7 nM | 140 | 520 nM | O=C(O)C1CN(Cc2ccc(-c3noc(-c4noc(-c5ccccc5)c4CCC(F)(F)F)n3)cc2)C1 [Example 8, 1-(4-(5-(5-Phenyl-4-(3,3,3-trifluoropropyl)isoxazol-3-yl)-1,2,4-oxadiazol-3-yl)benzyl)azetidine-3-carboxylic acid, 2,2,2-trifluoroacetic acid salt]
0.094 nM | 1.9 nM | 578 | 1100 nM | COC(=O)c1c(-c2ccccc2)noc1-c1nc(-c2ccc(CN3CC(C(=O)O)C3)cc2)no1 [Example 13, 1-(4-(5-(4-(Methoxycarbonyl)-3-phenylisoxazol-5-yl)-1,2,4-oxadiazol-3-yl)benzyl)azetidine-3-carboxylic acid, 2,2,2-trifluoroacetic acid salt]
6.5 nM | 29 nM | 175 | 5100 nM | O=C(NCC(F)(F)F)c1c(-c2ccccc2)noc1-c1nc(-c2ccc(CN3CC(C(=O)O)C3)cc2)no1 [Example 15, 1-(4-(5-(3-Phenyl-4-(2,2,2-trifluoroethylcarbamoyl)isoxazol-5-yl)-1,2,4-oxadiazol-3-yl)benzyl)azetidine-3-carboxylic acid, 2,2,2-trifluoroacetic acid salt]
40 nM | 112 nM | 18 | 2050 nM | O=C(O)c1c(-c2ccccc2)noc1-c1nc(-c2ccc(CN3CC(C(=O)O)C3)cc2)no1 [Example 16, 5-(3-(4-((3-Carboxyazetidin-1-yl)methyl)phenyl)-1,2,4-oxadiazol-5-yl)-3-phenylisoxazole-4-carboxylic acid]
